Biological target: T1, Human Vanilloid Receptor 1 (Homo sapiens, UniProt Q8NER1)
T1 construct: expressed in transfected cells; host or cells: HEK 293
Test: Human VR1 functional assay using FLIPR, Protocol 1
Assay type: cell-based
Settings: for inhibition at 9 µM: HEK293, 9 uM, inhibition of capsaicin (EC80)-induced calcium response, HEK 293 cells transfected with hVR1, read-out: h % I (9 uM); for IC50: decreased capsaicin (EC80)-induced calcium response, HEK 293 hVR1, read-out: h IC50; for Emax at 12.2 µM: HEK293, 12.2 uM, test compound-induced calcium response (agonist mode), HEK 293 hVR1, read-out: % maximal reponse to capsaicin (12.2 uM); for EC50: test compound-induced calcium response at the 5-minute time point, HEK 293 hVR1, read-out: h EC50
Description: The functional activity of the test compounds was determined by measuring changes in intracellular calcium concentration using FLIPR™ Calcium-3 Assay Kit and FLIPR™ technology.
HEK 293 cells transfected with Human Vanilloid Receptor 1 were maintained at 37° C. and 5% CO2 in: Dulbecco's Modification of Eagle's Medium (high glucose, L-glutamine, pyridoxine HCl, No sodium pyruvate), 10% FBS, 1× Penicillin-Streptomycin-Amphotericin B, 200 ug/mL zeocin. Approximately 24 hours prior to assay, 30,000 cells/well were plated onto a 384-well black clear bottom poly-D-lysine-coated assay plate with a well volume of 25 µL using Titertek Multidrop.
On the day of the assay, the medium was dumped and 50 μL 1× dye were loaded using Multidrop. Plates were incubated with dye at 37° C. for 30 minutes followed by 30 minutes incubation at room temperature. Then the plates were assayed by FLIPR™ with 2 additions: 12.5 μL test compound with 5 minutes data acquisition followed by 12.5 μL capsaicin at the EC80 concentration.
The EC50 values of test compounds were calculated based on a test compound-induced calcium response at the 5-minute time point. The IC50 values of compounds were calculated based on a decreased capsaicin-induced calcium response in the presence of test compound.

T1 sequence (Q8NER1 whole entry): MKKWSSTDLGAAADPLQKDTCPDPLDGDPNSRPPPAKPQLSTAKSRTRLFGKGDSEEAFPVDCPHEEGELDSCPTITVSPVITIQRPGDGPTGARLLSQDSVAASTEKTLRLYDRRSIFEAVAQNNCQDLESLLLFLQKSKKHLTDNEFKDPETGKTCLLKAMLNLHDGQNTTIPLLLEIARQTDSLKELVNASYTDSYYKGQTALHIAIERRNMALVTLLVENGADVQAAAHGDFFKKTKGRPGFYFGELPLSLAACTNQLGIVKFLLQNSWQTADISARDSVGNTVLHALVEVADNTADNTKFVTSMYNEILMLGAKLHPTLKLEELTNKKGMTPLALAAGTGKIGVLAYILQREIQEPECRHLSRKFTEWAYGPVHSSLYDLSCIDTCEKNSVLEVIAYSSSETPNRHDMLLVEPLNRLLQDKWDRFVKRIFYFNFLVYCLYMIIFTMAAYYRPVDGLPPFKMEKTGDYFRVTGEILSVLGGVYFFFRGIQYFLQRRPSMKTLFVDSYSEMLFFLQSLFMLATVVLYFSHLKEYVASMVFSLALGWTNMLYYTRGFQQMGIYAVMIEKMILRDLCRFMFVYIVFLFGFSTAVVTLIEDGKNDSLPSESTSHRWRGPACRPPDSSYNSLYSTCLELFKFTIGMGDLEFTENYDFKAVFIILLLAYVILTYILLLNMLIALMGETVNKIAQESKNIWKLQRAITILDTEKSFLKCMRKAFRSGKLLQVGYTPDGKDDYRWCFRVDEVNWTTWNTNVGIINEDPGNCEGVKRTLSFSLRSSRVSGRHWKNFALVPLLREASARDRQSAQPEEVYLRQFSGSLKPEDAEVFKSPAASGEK

inhibition at 9 µM | IC50 | Emax at 12.2 µM | EC50 | Structure (SMILES)
5% |  |  |  | CNc1ccc2ncncc2c1NC(=O)C1CCN(c2cccc(C(F)(F)F)c2)CC1 [Example 45, 1-(3-Trifluoromethyl-phenyl)-piperidine-4-carboxylic acid (6-methylamino-quinazolin-5-yl)-amide]
90.3% | 100 nM |  |  | Cc1c(Cl)cccc1N1CCC(C(=O)Nc2ccc3c(c2)NC(=O)CO3)CC1 [Example 157, 1-(3-Chloro-2-methyl-phenyl)-piperidine-4-carboxylic acid (3-oxo-3,4-dihydro-2H-benzo[1,4]oxazin-6-yl)-amide]
 |  | 40% | 5310 nM | O=C(Nc1cccc2cc[nH]c12)C1CCN(c2cccc(C(F)(F)F)c2)CC1 [Example 30, 1-(3-Trifluoromethyl-phenyl)-piperidine-4-carboxylic acid (1H-indol-7-yl)-amide]
91.3% | 330 nM |  |  | O=C1COc2ccc(NC(=O)C3CCN(c4cccc(Br)c4)CC3)cc2N1 [Example 149, 1-(3-Bromo-phenyl)-piperidine-4-carboxylic acid (3-oxo-3,4-dihydro-2H-benzo[1,4]oxazin-6-yl)-amide]
46.5% | 2640 nM |  |  | CC(=O)N1c2cc(NC(=O)C3CCN(c4cccc(C(F)(F)F)c4)CC3)ccc2CC1C (stereo not drawn) [Example 37, 1-(3-Trifluoromethyl-phenyl)-piperidine-4-carboxylic acid (1-acetyl-2-methyl-2,3-dihydro-1H-indol-6-yl)-amide]
9.5% |  |  |  | O=C(Nc1cc(-c2cccs2)n[nH]1)C1CCN(c2cccc(C(F)(F)F)c2)CC1 [Example 48, 1-(3-Trifluoromethyl-phenyl)-piperidine-4-carboxylic acid (5-thiophen-2-yl-2H-pyrazol-3-yl)-amide]
37% |  |  |  | N#Cc1c(N2CCC(C(=O)Nc3ccc4c(c3)NC(=O)CO4)CC2)cccc1C(F)(F)F [Example 162, 1-(2-Cyano-3-trifluoromethyl-phenyl)-piperidine-4-carboxylic acid (3-oxo-3,4-dihydro-2H-benzo[1,4]oxazin-6-yl)-amide]
61.4% | 1200 nM |  |  | CC(=O)N1CCc2c(NC(=O)C3CCN(c4cccc(C(F)(F)F)c4)CC3)cccc21 [Example 46, 1-(3-Trifluoromethyl-phenyl)-piperidine-4-carboxylic acid (1-acetyl-2,3-dihydro-1H-indol-4-yl)-amide]
94.8% | 380 nM |  |  | O=C1COc2ccc(NC(=O)C3CCN(c4ccccc4C(F)(F)F)CC3)cc2N1 [Example 165, 1-(2-Trifluoromethyl-phenyl)-piperidine-4-carboxylic acid (3-oxo-3,4-dihydro-2H-benzo[1,4]oxazin-6-yl)-amide]
8% |  |  |  | Cc1cc(Cl)nnc1NC(=O)C1CCN(c2cccc(C(F)(F)F)c2)CC1 [Example 51, 1-(3-Trifluoromethyl-phenyl)-piperidine-4-carboxylic acid (6-chloro-4-methyl-pyridazin-3-yl)-amide]
 |  | 35.5% | 2550 nM | O=C(Nc1ccc2nc(S)sc2c1)C1CCN(c2cccc(C(F)(F)F)c2)CC1 [Example 26, 1-(3-Trifluoromethyl-phenyl)-piperidine-4-carboxylic acid (2-mercapto-benzothiazol-6-yl)-amide]
14% |  |  |  | CCOC(=O)c1c(C)nn(-c2ccc(NC(=O)C3CCN(c4cccc(C(F)(F)F)c4)CC3)cn2)c1C [Example 36, 3,5-Dimethyl-1-(5-{[1-(3-trifluoromethyl-phenyl)-piperidine-4-carbonyl]-amino}-pyridin-2-yl)-1H-pyrazole-4-carboxylic acid ethyl ester]
12% |  |  |  | O=C(Nc1cc(-c2ccco2)n[nH]1)C1CCN(c2cccc(C(F)(F)F)c2)CC1 [Example 47, 1-(3-Trifluoromethyl-phenyl)-piperidine-4-carboxylic acid (5-furan-2-yl-2H-pyrazol-3-yl)-amide]
10% |  |  |  | Cc1cc(Oc2ccccc2)nc(NC(=O)C2CCN(c3cccc(C(F)(F)F)c3)CC2)n1 [Example 43, 1-(3-Trifluoromethyl-phenyl)-piperidine-4-carboxylic acid (4-methyl-6-phenoxy-pyrimidin-2-yl)-amide]
93.3% | 60 nM |  |  | O=C1COc2ccc(NC(=O)C3CCN(c4cc(F)c(F)c(F)c4)CC3)cc2N1 [Example 156, 1-(3,4,5-Trifluoro-phenyl)-piperidine-4-carboxylic acid (3-oxo-3,4-dihydro-2H-benzo[1,4]oxazin-6-yl)-amide]
11% |  |  |  | COc1ccc(-c2cnc(NC(=O)C3CCN(c4cccc(C(F)(F)F)c4)CC3)nc2C)cc1OC [Example 42, 1-(3-Trifluoromethyl-phenyl)-piperidine-4-carboxylic acid [5-(3,4-dimethoxy-phenyl)-4-methyl-pyrimidin-2-yl]-amide]
13% |  |  |  | O=C(Nc1ccc(O)c2ncccc12)C1CCN(c2cccc(C(F)(F)F)c2)CC1 [Example 27, 1-(3-Trifluoromethyl-phenyl)-piperidine-4-carboxylic acid (8-hydroxy-quinolin-5-yl)-amide]
12% |  |  |  | Cc1cc(C)c2c(NC(=O)C3CCN(c4cccc(C(F)(F)F)c4)CC3)csc2n1 [Example 41, 1-(3-Trifluoromethyl-phenyl)-piperidine-4-carboxylic acid (4,6-dimethyl-thieno[2,3-b]pyridin-3-yl)-amide]

The remaining lines, values behind:

Structure (SMILES) | inhibition at 9 µM | IC50 | Emax at 12.2 µM | EC50
O=C(Nc1nsc2ccc([N+](=O)[O-])cc12)C1CCN(c2cccc(C(F)(F)F)c2)CC1 [Example 20, 1-(3-Trifluoromethyl-phenyl)-piperidine-4-carboxylic acid (5-nitro-benzo[d]isothiazol-3-yl)-amide] | 2.5% |  |  | 
O=C(Nc1ccc2c(c1)N(CCO)C(=O)CO2)C1CCN(c2cccc(C(F)(F)F)c2)CC1 [Example 168, 1-(3-Trifluoromethyl-phenyl)-piperidine-4-carboxylic acid [4-(2-hydroxy-ethyl)-3-oxo-3,4-dihydro-2H-benzo[1,4]oxazin-6-yl]-amide] | 59.6% |  |  | 
O=C(Nc1cnc2ccccc2c1)C1CCN(c2cccc(-c3ccccc3)c2)CC1 [Example 3, 1-Biphenyl-3-yl-piperidine-4-carboxylic acid quinolin-3-ylamide] | 44% | 15500 nM |  | 
Cc1nc2cc(NC(=O)C3CCN(c4cccc(C(F)(F)F)c4)CC3)ccc2s1 [Example 19, 1-(3-Trifluoromethyl-phenyl)-piperidine-4-carboxylic acid (2-methyl-benzothiazol-5-yl)-amide] | 7.5% |  |  | 
Cc1nsc2ccc(NC(=O)C3CCN(c4cccc(C(F)(F)F)c4)CC3)cc12 [Example 12, 1-(3-Trifluoromethyl-phenyl)-piperidine-4-carboxylic acid (3-methyl-benzo[d]isothiazol-5-yl)-amide] |  |  | 74% | 860 nM
O=C1Cc2cc(NC(=O)C3CCN(c4cccc(C(F)(F)F)c4)CC3)ccc2N1 [Example 17, 1-(3-Trifluoromethyl-phenyl)-piperidine-4-carboxylic acid (2-oxo-2,3-dihydro-1H-indol-5-yl)-amide] |  |  | 49% | 470 nM
CCOC(=O)c1[nH]c2ccccc2c1NC(=O)C1CCN(c2cccc(C(F)(F)F)c2)CC1 [Example 14, 3-{[1-(3-Trifluoromethyl-phenyl)-piperidine-4-carbonyl]-amino}-1H-indole-2-carboxylic acid ethyl ester] | 4% |  |  | 
COc1ccc(NC(=O)C2CCN(c3cccc(C(F)(F)F)c3)CC2)cn1 [Example 25, 1-(3-Trifluoromethyl-phenyl)-piperidine-4-carboxylic acid (6-methoxy-pyridin-3-yl)-amide] |  |  | 74% | 850 nM
O=C(Nc1ccc2c(c1)OCCO2)C1CCN(c2cccc(C(F)(F)F)c2)CC1 [Example 18, 1-(3-Trifluoromethyl-phenyl)-piperidine-4-carboxylic acid (2,3-dihydro-benzo[1,4]dioxin-6-yl)-amide] | 12.5% |  |  | 
CCn1cnc2c(NC(=O)C3CCN(c4cccc(C(F)(F)F)c4)CC3)ncnc21 [Example 7, 1-(3-Trifluoromethyl-phenyl)-piperidine-4-carboxylic acid (9-ethyl-9H-purin-6-yl)-amide] | 5% |  |  | 
O=C(Nc1ccc2cc[nH]c2c1)C1CCN(c2cccc(C(F)(F)F)c2)CC1 [Example 23, 1-(3-Trifluoromethyl-phenyl)-piperidine-4-carboxylic acid (1H-indol-6-yl)-amide] | 19% |  |  | 
Cn1ncc2cc(NC(=O)C3CCN(c4cccc(C(F)(F)F)c4)CC3)ccc21 [Example 24, 1-(3-Trifluoromethyl-phenyl)-piperidine-4-carboxylic acid (1-methyl-1H-indazol-5-yl)-amide] |  |  | 68.5% | 1500 nM
O=C(Nc1ccc2c(c1)OCO2)C1CCN(c2cccc(C(F)(F)F)c2)CC1 [Example 15, 1-(3-Trifluoromethyl-phenyl)-piperidine-4-carboxylic acid benzo[1,3]dioxol-5-ylamide] | 61% | 4570 nM |  | 

— patent publication US20060116368A1, “4-Piperidinecarboxamide modulators of vanilloid VR1 receptor” (priority 2004, published 2006)
